Experimental findings from ChEMBL document CHEMBL4043091, “Lead Discovery of Dual G-Quadruplex Stabilizers and Poly(ADP-ribose) Polymerases (PARPs) Inhibitors: A New Avenue in Anticancer Treatment” (J Med Chem, 2017) are described below.

The source made the active and inactive calls. The calls are words filed in the database; no cut-off is given here.

For data set [1], the system named is DLD-1. The data set is described as follows: Antiproliferative activity against human DLD1 cells deficient BRCA2 up to 2 uM after 6 days by MTT assay. It is filed as functional, cell-based. In general terms: Tetrazolium dyes change colour on reduction, which living cells bring about.
The subject of data set [2] is BJeH-LT. The data set is described as follows: Induction of DNA damage in human BJeH-LT cells assessed as increase in telomere's dysfunction induced foci positive nuclei at 1 uM after 24 hrs by hoechst staining-based immunofluorescence analysis. It counts as functional, cell-based.
For data set [3], the species on record is Homo sapiens. The data set is described as follows: Binding affinity to G-quadruplex DNA in human BJeH-LT cells at 1 uM after 24 hrs by hoechst staining-based immunofluorescence analysis. It is filed as cell-based.
The subject of data set [4] is DLD-1. The data set is described as follows: Antiproliferative activity against human DLD1 cells harboring BRCA2 up to 2 uM after 6 days by MTT assay. It counts as functional, cell-based.
The species entered for data set [5] is Homo sapiens. Put plainly: Binding affinity to human telomeric 23-p G-quadruplex DNA assessed as change in melting temperature at 10 molequiv after 30 mins by CD spectra analysis.
For data set [6], the species on record is Homo sapiens. Put plainly: Binding affinity to human telomeric 23 G-quadruplex DNA assessed as change in melting temperature at 10 molequiv after 30 mins by CD spectra analysis.
For data set [7], the species on record is Homo sapiens. Put plainly: Binding affinity to human telomeric 26 G-quadruplex DNA assessed as change in melting temperature at 10 molequiv after 30 mins by CD spectra analysis.
Data set [8] can be described thus: Binding affinity to 5'-FAM/3'-TAMRA labelled F21T G-quadruplex DNA (unknown origin) assessed as increase in melting temperature at 4 uM in presence of 5 to 10 uM 12-mer duplex DNA by FRET assay.
The nature of data set [9]: Binding affinity to 5'-FAM/3'-TAMRA labelled F21T G-quadruplex DNA (unknown origin) assessed as change in melting temperature at 4 uM by FRET assay.
The nature of data set [10]: Binding affinity to 12-mer duplex DNA (unknown origin) at 10 molequiv after 30 mins by CD spectra analysis.
Another data set relates to hTERT-BJ. The data set is described as follows: Induction of DNA damage in human hTERT-BJ cells assessed as increase in gamma-H2AX foci formation at 1 uM after 24 hrs by hoechst staining-based immunofluorescence analysis. It counts as cell-based.
For data set [11], the species on record is Homo sapiens. Put plainly: Binding affinity to human telomeric 23 G-quadruplex DNA assessed as increase in melting temperature up to 300 uM after 30 mins by CD spectra analysis.
The species entered for data set [12] is Homo sapiens. Put plainly: Binding affinity to human telomeric 23-p G-quadruplex DNA assessed as increase in melting temperature at lower concentration after 30 mins by CD spectra analysis.
Data set [13] deals with BJeH-LT. The data set is described as follows: Induction of DNA damage in human BJeH-LT cells assessed as increase in gamma-H2AX foci formation at 1 uM after 24 hrs followed by compound washout by hoechst staining-based immunofluorescence analysis. It counts as functional, cell-based.
For data set [14], the species on record is Homo sapiens. Put plainly: Binding affinity to human telomeric 26 G-quadruplex DNA assessed as increase in melting temperature up to 300 uM after 30 mins by CD spectra analysis.
Data set [15] can be described thus: Binding affinity to human Cy5-labeled telomeric 26 G-quadruplex DNA by […] analysis.
Data set [16] has as its system BJeH-LT. The data set is described as follows: Induction of DNA damage in human BJeH-LT cells assessed as increase in gamma-H2AX foci formation at 1 uM after 24 hrs by hoechst staining-based immunofluorescence analysis. It counts as functional, cell-based.
Data set [17] deals with BJeH-LT. Put plainly: Induction of DNA damage in human BJeH-LT cells assessed as increase in gamma-H2AX foci formation at >1 uM after 24 hrs by hoechst staining-based immunofluorescence analysis. It is filed as functional, cell-based.
For data set [18], the species on record is Homo sapiens. The data set is described as follows: Binding affinity to human Cy5-labeled telomeric 26 G-quadruplex DNA at 10^-1 to 10^4 nM by […] analysis.
The species named for data set [19] is Homo sapiens. Put plainly: Binding affinity to human telomeric 23-p G-quadruplex DNA assessed as increase in melting temperature up to 240 uM after 30 mins by CD spectra analysis.
Data set [20] is filed under the species Homo sapiens. The data set is described as follows: Inhibition of PARP in human BJeH-LT cells assessed as reduction of Poly(ADP-ribosyl)ation at 1 uM preincubated for 16 hrs followed by [3H]NAD addition measured after 10 mins by liquid scintillation counting method. It counts as cell-based.
Data set [21] addresses Poly [ADP-ribose] polymerase 1 (Homo sapiens, UniProt P09874). Put plainly: Inhibition of recombinant human PARP1 expressed in Escherichia coli assessed as reduction of Poly(ADP-ribosyl)ation after 15 mins in presence of [3H]NAD+/cleaved DNA/histones by scintillation counting method.

Poly [ADP-ribose] polymerase 1, sequence (P09874 whole entry): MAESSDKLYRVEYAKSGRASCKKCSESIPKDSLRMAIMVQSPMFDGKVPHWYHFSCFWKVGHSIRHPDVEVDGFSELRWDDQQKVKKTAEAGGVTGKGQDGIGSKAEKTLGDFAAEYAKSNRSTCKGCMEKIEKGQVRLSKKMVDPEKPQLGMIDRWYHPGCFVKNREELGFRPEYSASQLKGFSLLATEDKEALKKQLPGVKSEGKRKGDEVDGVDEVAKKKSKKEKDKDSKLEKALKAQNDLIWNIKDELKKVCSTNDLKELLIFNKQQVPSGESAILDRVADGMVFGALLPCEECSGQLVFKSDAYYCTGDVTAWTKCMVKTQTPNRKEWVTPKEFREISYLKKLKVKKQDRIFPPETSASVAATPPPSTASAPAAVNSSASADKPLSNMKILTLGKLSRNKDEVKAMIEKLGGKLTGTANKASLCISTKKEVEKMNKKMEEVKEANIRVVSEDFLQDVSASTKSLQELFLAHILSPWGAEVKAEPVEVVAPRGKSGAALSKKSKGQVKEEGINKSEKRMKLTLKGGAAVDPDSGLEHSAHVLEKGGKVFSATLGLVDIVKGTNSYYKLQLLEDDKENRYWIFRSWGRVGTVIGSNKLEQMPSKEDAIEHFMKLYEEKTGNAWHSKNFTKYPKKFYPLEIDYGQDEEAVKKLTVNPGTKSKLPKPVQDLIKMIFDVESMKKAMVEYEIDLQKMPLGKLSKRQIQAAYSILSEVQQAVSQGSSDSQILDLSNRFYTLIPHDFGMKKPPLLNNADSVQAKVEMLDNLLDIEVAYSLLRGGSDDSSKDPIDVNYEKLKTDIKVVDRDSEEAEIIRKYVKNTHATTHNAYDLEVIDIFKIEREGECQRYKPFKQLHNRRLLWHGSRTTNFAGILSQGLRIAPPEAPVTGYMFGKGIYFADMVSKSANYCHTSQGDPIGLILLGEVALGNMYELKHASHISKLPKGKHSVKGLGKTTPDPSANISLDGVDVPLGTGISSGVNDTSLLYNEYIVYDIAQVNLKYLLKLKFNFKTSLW

Regarding `CN1C(=O)C2C=C(C(=O)NCCN3CCC(Cc4ccccc4)CC3)SC2c2ccccc21` (stereo unspecified), the result in the data set with DLD-1 [1], with BJeH-LT [2], in the data set listed under Homo sapiens [3] and in the data set on DLD-1 [4] was Active.

In general, ΔTm refers to the change in melting temperature against a reference sample. In the case of `COC1CCN(C(=O)c2cc(Cc3n[nH]c(=O)c4ccccc34)ccc2F)CC1`, the ΔTm in the data set filed under Homo sapiens [5] was determined as 2.6 °C; in the data set filed under Homo sapiens [6], 0.1 °C; in the data set filed under Homo sapiens [7], 1.3 °C. Moreover, the result in the data set filed under Homo sapiens [3] was inactive.

In general, Kd refers to the concentration at which binding is half-saturated. High values mean weaker binding, low ones tighter binding. Regarding `Cn1c(=O)c2cc(C(=O)NCCN3CCC(Cc4ccccc4)CC3)sc2c2ccccc21`, the thermal shift (ΔTm) in the data set listed under Homo sapiens [5] came to 7 °C; in the data set listed under Homo sapiens [6], 5.8 °C; in data set [9], 4.5 °C; in the data set filed under Homo sapiens [7], 5.5 °C. In addition, the result (in data set [8]; in the data set listed under Homo sapiens [11]; in the data set filed under Homo sapiens [12]; in the data set on BJeH-LT [2]; in the data set listed under Homo sapiens [14]; in the data set filed under Homo sapiens [3]) was Active. In the data set on BJeH-LT [16], the outcome was Active. The result (in data set [10]; with BJeH-LT [13]) was inactive. The Activity entry in the data set on hTERT-BJ is recorded as “Non-Toxic”. Besides, the Kd in [15] amounted to 0.24 µM.

Consider `COC(=O)c1cc2c(=O)n(C)c3ccccc3c2s1`, for which the ΔTm turned out to be 2.4 °C in the data set filed under Homo sapiens [5], 0.4 °C in the data set filed under Homo sapiens [6] and 0.4 °C in the data set listed under Homo sapiens [7]. For the same compound, the result in the data set with BJeH-LT [17], in the data set filed under Homo sapiens [18] and in the data set on BJeH-LT [13] was inactive. For the same compound, in the data set listed under Homo sapiens [3], the outcome was Active.

As to `COC(=O)c1cc2[nH]c(=O)c3ccccc3c2s1`, the ΔTm is 3 °C in the data set filed under Homo sapiens [5], 0.9 °C in the data set filed under Homo sapiens [6] and 0.9 °C in the data set listed under Homo sapiens [7]. The outcome in the data set with BJeH-LT [17] and in the data set with BJeH-LT [13] was inactive. The result in the data set listed under Homo sapiens [3] was Active.

On to `O=C(NCCN1CCC(Cc2ccccc2)CC1)c1cc2c(=O)[nH]c3ccccc3c2s1`, for which the shift in melting temperature (ΔTm) worked out at 7.7 °C in the data set filed under Homo sapiens [5], 0.3 °C in the data set listed under Homo sapiens [6] and 2.6 °C in the data set filed under Homo sapiens [7]. The outcome (in data set [10]; with BJeH-LT [13]) was inactive. In addition, in the data set with hTERT-BJ, the Activity result is “Non-Toxic”. Further, the outcome with BJeH-LT [2], in the data set listed under Homo sapiens [19], in the data set filed under Homo sapiens [3] and in the data set with BJeH-LT [16] was Active.

Take `Oc1nc(-c2ccc(C(F)(F)F)cc2)nc2c1CSCC2`: in the data set filed under Homo sapiens [3], the result was inactive.

One may read the IC50 as the concentration needed to halve the response being measured. Take `O=C(NCCN1CCC(Cc2ccccc2)CC1)c1cc2[nH]c(=O)c3ccccc3c2s1`: the ΔTm stood at 4.2 °C in the data set listed under Homo sapiens [5], 0.7 °C in the data set listed under Homo sapiens [6] and 2 °C in the data set filed under Homo sapiens [7]. Also, the outcome with BJeH-LT [13] was inactive. In addition, the inhibition entry in the data set listed under Homo sapiens [20] is “Active”. Besides, the IC50 in data set [21] is 0.223 µM.

Take `COC(=O)c1cc2c(=O)[nH]c3ccccc3c2s1`: the ΔTm in the data set filed under Homo sapiens [5] worked out at 1.9 °C; in the data set filed under Homo sapiens [6], 1.5 °C; in the data set filed under Homo sapiens [7], 2.2 °C. Further, the Activity entry in the data set on hTERT-BJ is on record as “Non-Toxic”. The outcome in the data set with BJeH-LT [2] and in the data set with BJeH-LT [13] was inactive. The outcome in the data set listed under Homo sapiens [3] and in the data set with BJeH-LT [16] was Active.

For the compound `Cc1nc2c(O)cccc2c(=O)[nH]1`, the results for the ΔTm in the data set listed under Homo sapiens [5], in the data set filed under Homo sapiens [6] and in the data set listed under Homo sapiens [7] were 2.4 °C, 0 °C and 1.1 °C, respectively.

As for `Cn1c(=O)c2ccccc2c2sc(C(=O)NCCN3CCC(Cc4ccccc4)CC3)cc21`, the results for the ΔTm in the data set listed under Homo sapiens [5], in the data set listed under Homo sapiens [6] and in the data set listed under Homo sapiens [7] were 10.5 °C, 1.6 °C and 3 °C, respectively. Besides, the outcome (in data set [10]; in the data set on BJeH-LT [13]) was inactive. Also, the Activity entry in the data set on hTERT-BJ is recorded as “Non-Toxic”. Further, the result in the data set with BJeH-LT [2], in the data set listed under Homo sapiens [19], in the data set listed under Homo sapiens [3] and in the data set on BJeH-LT [16] was Active.

Take `COC(=O)c1cc2c(s1)c1ccccc1c(=O)n2C`: the shift in melting temperature (ΔTm) was 1.4 °C in the data set filed under Homo sapiens [5], -0.8 °C in the data set filed under Homo sapiens [6] and 1.4 °C in the data set filed under Homo sapiens [7]. Further, the Activity entry with hTERT-BJ was “Non-Toxic”. Further, the outcome with BJeH-LT [2] and in the data set with BJeH-LT [13] was inactive. In addition, the outcome in the data set filed under Homo sapiens [3] and with BJeH-LT [16] was Active.

`O=c1[nH]c2sccc2c2ccccc12`: the outcome in the data set on DLD-1 [1], in the data set listed under Homo sapiens [3], with DLD-1 [4] and in the data set on BJeH-LT [16] was inactive.
